Experimental data reported in US20250353891A1 (MEDIMMUNE LIMITED, priority 2022, published 2025).
pEC50: −log10 of the molar value.

Assays:
[1] = biological target: human GLP-1 receptor (hGLP-1R) (Homo sapiens, UniProt P43220); assay: cAMP production (HTRF) in CHO cells expressing hGLP-1R; assay type: cell-based; parameters: expressed in transfected cells; conditions: for pEC50: Table 7, peptides modified at position 20, cAMP in CHO hGLP-1R cells, geometric mean, read-out: hGLP-1R EC50; for % Relative Potency Ratio: Table 7, % GLP-1R activity relative to GLP-1 / % GlucR activity relative to glucagon
Chain of human GLP-1 receptor (hGLP-1R) (P43220 24-463): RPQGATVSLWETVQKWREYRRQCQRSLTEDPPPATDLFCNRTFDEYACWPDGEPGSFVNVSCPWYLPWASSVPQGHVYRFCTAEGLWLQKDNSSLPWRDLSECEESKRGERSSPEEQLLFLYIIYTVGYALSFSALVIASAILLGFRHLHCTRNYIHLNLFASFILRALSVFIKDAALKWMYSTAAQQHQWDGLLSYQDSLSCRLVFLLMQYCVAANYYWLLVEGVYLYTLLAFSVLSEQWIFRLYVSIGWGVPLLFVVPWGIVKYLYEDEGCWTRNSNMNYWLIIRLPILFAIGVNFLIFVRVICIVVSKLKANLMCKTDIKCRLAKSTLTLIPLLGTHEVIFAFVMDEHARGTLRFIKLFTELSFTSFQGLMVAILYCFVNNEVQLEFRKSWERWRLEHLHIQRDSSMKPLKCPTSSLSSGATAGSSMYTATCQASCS
In short: (§1)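 Read-out: HTRF cAMP (anti-cAMP cryptate donor, cAMP-d2 acceptor in conjugate/lysis buffer), converted to % Delta F and fitted by 4-parameter logistic for EC50. Cell densities were 1×10^5 cells/mL (hGLP-1R) or 2×10^5 cells/mL (hGCGR). Stimulation lasted 30 min at room temperature.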

[2] = biological target: human glucagon receptor (hGCGR) (Homo sapiens, UniProt P47871); assay: cAMP production (HTRF) in CHO cells expressing hGCGR; assay type: cell-based; parameters: expressed in transfected cells; conditions: Table 7, peptides modified at position 20; cAMP in CHO hGCGR cells; geometric mean; read-out: hGluc-R EC50
Chain of human glucagon receptor (hGCGR) (P47871 26-477): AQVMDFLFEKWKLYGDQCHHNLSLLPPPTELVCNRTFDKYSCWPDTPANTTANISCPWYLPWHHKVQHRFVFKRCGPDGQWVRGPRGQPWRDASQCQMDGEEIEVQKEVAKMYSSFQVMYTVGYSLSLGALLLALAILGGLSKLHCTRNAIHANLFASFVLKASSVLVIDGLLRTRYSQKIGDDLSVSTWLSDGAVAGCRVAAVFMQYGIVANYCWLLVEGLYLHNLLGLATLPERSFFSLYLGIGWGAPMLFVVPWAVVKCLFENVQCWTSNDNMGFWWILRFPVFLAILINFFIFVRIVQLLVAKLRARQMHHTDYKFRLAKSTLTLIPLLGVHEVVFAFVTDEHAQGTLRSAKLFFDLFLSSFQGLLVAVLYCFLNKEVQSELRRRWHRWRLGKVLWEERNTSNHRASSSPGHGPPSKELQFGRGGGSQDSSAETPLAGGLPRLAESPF
In short: as §1

| pEC50 [1] | % Relative Potency Ratio [1] | pEC50 [2] | SMILES |
| --- | --- | --- | --- |
| 9.68 | 1.5 | 9.81 | CC[C@H](C)[C@H](NC(=O)[C@H](Cc1c[nH]c2ccccc12)NC(=O)[C@H](CCC(N)=O)NC(=O)[C@@H](NC(=O)[C@H](Cc1ccccc1)NC(=O)[C@H](CC(=O)O)NC(=O)[C@H](CCCCNC(=O)COCCOCCNC(=O)COCCOCCNC(=O)CC[C@H](NC(=O)CC[C@H](NC(=O)CCCCCCCCCCCCCCCCCCC(=O)O)C(=O)O)C(=O)O)NC(=O)[C@H](C)NC(=O)[C@H](C)NC(=O)[C@H](CCCNC(=N)N)NC(=O)[C@H](CO)NC(=O)[C@H](CC(=O)O)NC(=O)[C@H](CC(C)C)NC(=O)[C@](C)(Cc1ccccc1)NC(=O)[C@H](CCCCN)NC(=O)[C@H](CO)NC(=O)[C@@H](NC(=O)[C@H](CC(=O)O)NC(=O)[C@H](CO)NC(=O)[C@@H](NC(=O)[C@H](Cc1ccccc1)NC(=O)[C@@H](NC(=O)CNC(=O)[C@H](Cc1c[nH]cn1)NC(=O)C(C)(C)NC(=O)[C@@H](N)Cc1c[nH]cn1)[C@@H](C)O)[C@@H](C)O)C(C)C)C(C)C)C(=O)N[C@@H](C)C(=O)N[C@@H](CC(N)=O)C(=O)N[C@H](C(N)=O)[C@@H](C)O [Peptide 305] |
| 10.33 | 32.5 | 9.11 | CC[C@H](C)[C@H](NC(=O)[C@H](Cc1c[nH]c2ccccc12)NC(=O)[C@H](CCC(=O)O)NC(=O)[C@@H](NC(=O)[C@H](Cc1ccccc1)NC(=O)[C@H](CC(=O)O)NC(=O)[C@H](CCCCNC(=O)COCCOCCNC(=O)COCCOCCNC(=O)CC[C@H](NC(=O)CCCCCCCCCCCCCCCCC(=O)O)C(=O)O)NC(=O)[C@H](C)NC(=O)[C@H](C)NC(=O)[C@H](CCCNC(=N)N)NC(=O)[C@H](CO)NC(=O)[C@H](CC(=O)O)NC(=O)[C@H](CC(C)C)NC(=O)[C@](C)(Cc1ccccc1)NC(=O)[C@H](CCCCN)NC(=O)[C@H](CO)NC(=O)[C@@H](NC(=O)[C@H](CC(=O)O)NC(=O)[C@H](CO)NC(=O)[C@@H](NC(=O)[C@H](Cc1ccccc1)NC(=O)[C@@H](NC(=O)CNC(=O)[C@H](CCC(N)=O)NC(=O)C(C)(C)NC(=O)[C@@H](N)Cc1c[nH]cn1)[C@@H](C)O)[C@@H](C)O)C(C)C)C(C)C)C(=O)N[C@@H](C)C(=O)N[C@@H](CC(N)=O)C(=O)N[C@H](C(N)=O)[C@@H](C)O [Peptide 306] |
| 10.65 | 100.5 | 8.95 | CC[C@H](C)[C@H](NC(=O)[C@H](Cc1c[nH]c2ccccc12)NC(=O)[C@H](CCCNC(=N)N)NC(=O)[C@@H](NC(=O)[C@H](Cc1ccccc1)NC(=O)[C@H](CC(=O)O)NC(=O)[C@H](CCCCNC(=O)COCCOCCNC(=O)COCCOCCNC(=O)CC[C@H](NC(=O)CCCCCCCCCCCCCCCCC(=O)O)C(=O)O)NC(=O)[C@H](C)NC(=O)[C@H](C)NC(=O)[C@H](CCCNC(=N)N)NC(=O)[C@H](CO)NC(=O)[C@H](CC(=O)O)NC(=O)[C@H](CC(C)C)NC(=O)[C@](C)(Cc1ccccc1)NC(=O)[C@H](CCCCN)NC(=O)[C@H](CO)NC(=O)[C@@H](NC(=O)[C@H](CC(=O)O)NC(=O)[C@H](CO)NC(=O)[C@@H](NC(=O)[C@H](Cc1ccccc1)NC(=O)[C@@H](NC(=O)CNC(=O)[C@H](CCC(N)=O)NC(=O)C(C)(C)NC(=O)[C@@H](N)Cc1c[nH]cn1)[C@@H](C)O)[C@@H](C)O)C(C)C)C(C)C)C(=O)N[C@@H](C)C(=O)N[C@@H](CC(N)=O)C(=O)N[C@H](C(N)=O)[C@@H](C)O [Peptide 307] |
